Results on 15 compounds are retold here after PubChem BioAssay AID328 (DTP/NCI, 2004).

Values joined by “and” are separate entries in the source; they are usually repeats but may differ in a detail not shown here. Identical values can stand only once. Toxic doses and inconclusive results are not listed.

For this assay, the system named is BDF1 mice, P388 leukemia ip, median survival T/C. In words: NCI In Vivo Anticancer Drug Screen. Data for tumor model P388 Leukemia (intraperitoneal) in B6D2F1 (BDF1) mice. The settings on record: endpoint: median survival time, higher = longer survival. Put shortly: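 Vehicle-dosed animals serve as the reference; survival of compound-dosed, tumour-implanted mice is divided by it.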

Setting [1] is: dose: 50.0 mg/kg/injection, schedule: Q01DX009 (ip), vehicle: saline.
Where [2] appears, read: dose: 100.0 mg/kg/injection, schedule: Q01DX009 (ip), vehicle: saline.
The mark [3] stands for this setting: dose: 100.0 mg/kg/injection, schedule: Q04DX003 (ip), vehicle: Klucel (hydroxypropylcellulose) (HPC).
The mark [4] stands for this setting: dose: 200.0 mg/kg/injection, schedule: Q04DX003 (ip), vehicle: Klucel (hydroxypropylcellulose) (HPC).
The mark [5] stands for this setting: dose: 400.0 mg/kg/injection, schedule: Q04DX003 (ip), vehicle: Klucel (hydroxypropylcellulose) (HPC).
The mark [6] stands for this setting: dose: 50.0 mg/kg/injection, schedule: Q01DX009 (ip), vehicle: saline with Tween-80.
The mark [7] stands for this setting: dose: 100.0 mg/kg/injection, schedule: Q01DX009 (ip), vehicle: saline with Tween-80.
Setting [8] is: dose: 200.0 mg/kg/injection, schedule: Q01DX009 (ip), vehicle: saline with Tween-80.
Where [9] appears, read: dose: 3.12 mg/kg/injection, schedule: Q01DX009 (ip), vehicle: water.
[10] abbreviates: dose: 6.25 mg/kg/injection, schedule: Q01DX009 (ip), vehicle: water.
[11] abbreviates: dose: 12.5 mg/kg/injection, schedule: Q01DX009 (ip), vehicle: water.
Setting [12] is: dose: 25.0 mg/kg/injection, schedule: Q01DX009 (ip), vehicle: water.
Setting [13] is: dose: 50.0 mg/kg/injection, schedule: Q01DX009 (ip), vehicle: water.
Setting [14] is: dose: 12.5 mg/kg/injection, schedule: Q01DX009 (ip), vehicle: saline.
Where [15] appears, read: dose: 25.0 mg/kg/injection, schedule: Q01DX009 (ip), vehicle: saline.
Setting [16] is: dose: 50.0 mg/kg/injection, schedule: Q04DX003 (ip), vehicle: saline.

Consider `C=CC(=O)NCCC(=O)O`, for which the T/C by setting is: under setting [1], 100 % of control; under setting [2], 90 % of control; (dose: 200.0 mg/kg/injection, schedule: Q01DX009 (ip), vehicle: saline) 94 % of control.
For `NNC(=O)C(O)C(O)C(=O)NN` (stereo unspecified), the T/C reads like this: (dose: 60.0 mg/kg/injection, schedule: Q01DX009 (ip), vehicle: saline) 96 % of control; (dose: 120.0 mg/kg/injection, schedule: Q01DX009 (ip), vehicle: saline) 93 % of control.
For `NC(=S)N/N=C\c1[nH]c(=O)nc2ccccc12`, the T/C under setting [3] was 100 % of control, the T/C under setting [4] is 100 % of control and the T/C under setting [5] is 95 % of control.
For the compound `COc1ccc(C(=O)NN2C(N)=NC(N)=NC2(C)C)cc1`, the T/C is 100 % of control (dose: 50.0 mg/kg/injection, schedule: Q04DX003 (ip), vehicle: saline sonified); 100 % of control (dose: 100.0 mg/kg/injection, schedule: Q04DX003 (ip), vehicle: saline sonified); 105 % of control (dose: 200.0 mg/kg/injection, schedule: Q04DX003 (ip), vehicle: saline sonified).
Take `CCC(c1ccc(O)cc1)C(CC)c1ccc(OC)cc1` (stereo unspecified): the T/C under setting [6] was 104 % of control, the T/C under setting [7] was 118 % of control and the T/C under setting [8] was 109 % of control.
Regarding `O=[N+]([O-])c1ccc(NS(=O)(=O)c2cccs2)c([N+](=O)[O-])c1`, under setting [6], the T/C was 96 % of control.
Consider `Cc1ccc2c(c1)SSc1ccc(C)cc1SS2`, for which the T/C reads like this: under setting [6], 103 % of control; under setting [7], 109 % of control; under setting [8], 114 % of control.
Turning to `FC(F)(F)c1nc[nH]c1C(F)(F)F`, the T/C is 99 % of control under setting [9]; 90 % of control under setting [10]; 91 % of control under setting [11]; 99 % of control under setting [12]; 89 % of control under setting [13]; 98 % of control (dose: 50.0 mg/kg/injection, schedule: Q04DX003 (ip), vehicle: water). The T/C (dose: 100.0 mg/kg/injection, schedule: Q04DX003 (ip), vehicle: water) is 104 % of control.
Turning to `COc1cc(C(=O)N2CC2)cc(OC)c1OC`, the T/C by setting is: under setting [9], 108 % of control; under setting [10], 90 % of control; under setting [11], 99 % of control; under setting [12], 101 % of control; under setting [13], 96 % of control.
For `OCC(I)C(CO)[n+]1ccccc1` (stereo unspecified), the T/C was 107 % of control under setting [14]; 88 % of control (dose: 12.5 mg/kg/injection, schedule: Q04DX003 (ip), vehicle: saline); 107 % of control under setting [15]; 103 % of control (dose: 25.0 mg/kg/injection, schedule: Q04DX003 (ip), vehicle: saline); 100 % of control under setting [16].
With `C=CCCCC[P+](c1ccccc1)(c1ccccc1)c1ccccc1`, the T/C is, setting by setting: (dose: 0.75 mg/kg/injection, schedule: Q01DX010 (ip), vehicle: saline) 110 % of control; (dose: 1.5 mg/kg/injection, schedule: Q01DX010 (ip), vehicle: saline) 115 % of control and 120 % of control; (dose: 6.0 mg/kg/injection, schedule: Q01DX010 (ip), vehicle: saline) 152 % of control; (dose: 12.0 mg/kg/injection, schedule: Q01DX010 (ip), vehicle: saline) 110 % of control.
With `COc1c(Cl)cc2c(c1OC)N(C)C1N3C(=O)C4(C)SSC3(C(=O)N4C)C(O)C21O` (stereo unspecified), the T/C runs as follows: (dose: 0.12 mg/kg/injection, schedule: Q01DX009 (ip), vehicle: Klucel (hydroxypropylcellulose) (HPC)) 86 % of control; (dose: 0.25 mg/kg/injection, schedule: Q01DX009 (ip), vehicle: Klucel (hydroxypropylcellulose) (HPC)) 109 % of control.
As for `COc1ccc(/C=C/C(=O)c2ccc3c(c2)OCO3)cc1O`, the T/C by setting is: (dose: 3.12 mg/kg/injection, schedule: Q01DX009 (ip), vehicle: saline) 104 % of control and 106 % of control; (dose: 6.25 mg/kg/injection, schedule: Q01DX009 (ip), vehicle: saline) 93 % of control and 104 % of control; under setting [14], 100 % of control; under setting [15], 94 % of control and 110 % of control; under setting [1], 101 % of control and 107 % of control; under setting [16], 106 % of control. Further, the T/C by setting is: under setting [2], 93 % of control and 96 % of control; (dose: 100.0 mg/kg/injection, schedule: Q04DX003 (ip), vehicle: saline) 113 % of control; (dose: 200.0 mg/kg/injection, schedule: Q04DX003 (ip), vehicle: saline) 104 % of control; (dose: 400.0 mg/kg/injection, schedule: Q04DX003 (ip), vehicle: saline) 114 % of control.
In the case of `CCCCCCCC(O)CCC` (stereo unspecified), the T/C was 108 % of control under setting [3], 100 % of control under setting [4] and 87 % of control under setting [5].
Consider `CC(C)=CCC1=C(OC2OC(CO)C(O)C(O)C2O)C(=O)c2ccccc2C1=O` (stereo unspecified), for which the T/C is 123 % of control (dose: 1.56 mg/kg/injection, schedule: Q01DX009 (ip), vehicle: saline with Tween-80) and 160 % of control (dose: 3.13 mg/kg/injection, schedule: Q01DX009 (ip), vehicle: saline with Tween-80).
